In patent US7834179B2, “Spiroindolinone derivatives” (Hoffmann-La Roche Inc., priority 2007, dated 2010) one finds IC50 data, which are given here for 5 compounds.

For orientation: IC50 means the midpoint of a concentration-inhibition curve.

Molecules are shown by their SMILES.

For the experiment, the target named is interaction between p53 and MDM2 proteins (Homo sapiens, UniProt Q00987). The experiment in a line: HTRF assay of inhibition of p53-MDM2 interaction (GST-MDM2 / biotinylated p53 peptide). As to conditions: recombinant GST-tagged MDM2 and biotinylated p53 peptide, 37° C. for 1 h. Format: binding. Here is the method: The ability of the compounds to inhibit the interaction between p53 and MDM2 proteins was measured by an HTRF (homogeneous time-resolved fluorescence) assay in which recombinant GST-tagged MDM2 binds to a peptide that resembles the MDM2-interacting region of p53 (Lane et al.). Binding of GST-MDM2 protein and p53-peptide (biotinylated on its N-terminal end) is registered by the FRET (fluorescence resonance energy transfer) between Europium (Eu)-labeled anti-GST antibody and streptavidin-conjugated Allophycocyanin (APC).
Test is performed in black flat-bottom 384-well plates (Costar) in a total volume of 40 uL containing: 90 nM biotinylate peptide, 160 ng/ml GST-MDM2, 20 nM streptavidin-APC (PerkinElmerWallac), […] Eu-labeled anti-GST-antibody (PerkinElmerWallac), 0.2% bovine serum albumin (BSA), 1 mM dithiothreitol (DTT) and 20 mM Tris-borate seine (TBS) buffer as follows: Add 10 uL of GST-MDM2 (640 ng/ml working solution) in reaction buffer to each well. Add 10 uL diluted compounds (1:5 dilution in reaction buffer) to each well, mix by shaking. Add 20 uL biotinylated p53 peptide (180 nM working solution) in reaction buffer to
each well and mix on shaker. Incubate at 37° C. for 1 h. Add 20 uL streptavidin-APC and Eu-anti-GST antibody mixture (6 nM Eu-anti-GST and 60 nM streptavidin-APC working solutions), in TBS buffer with 0.2% BSA, shake at room temperature for 30 minutes and read using a TRF-capable plate reader at 665 and 615 nm (Victor 5, Perkin ElmerWallac). If not specified, the reagents were purchased from Sigma, Chemical Co.
A general note: TR-FRET usually uses a lanthanide donor and a delayed reading to cut background.

Chain of interaction between p53 and MDM2 proteins (Q00987 whole entry): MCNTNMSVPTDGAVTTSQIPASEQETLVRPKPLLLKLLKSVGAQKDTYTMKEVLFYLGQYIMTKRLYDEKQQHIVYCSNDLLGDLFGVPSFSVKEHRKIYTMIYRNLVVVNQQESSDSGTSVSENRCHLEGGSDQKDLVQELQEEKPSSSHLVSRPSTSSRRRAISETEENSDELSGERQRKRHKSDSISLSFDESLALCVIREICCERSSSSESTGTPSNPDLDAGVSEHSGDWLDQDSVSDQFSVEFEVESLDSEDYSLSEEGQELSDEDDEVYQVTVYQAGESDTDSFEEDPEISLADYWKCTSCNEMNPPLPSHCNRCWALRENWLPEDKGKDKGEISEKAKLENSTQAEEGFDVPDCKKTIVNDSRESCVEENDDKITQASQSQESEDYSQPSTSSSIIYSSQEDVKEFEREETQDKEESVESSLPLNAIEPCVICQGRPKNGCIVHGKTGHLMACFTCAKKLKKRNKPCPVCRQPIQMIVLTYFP

For the compound `Cc1ccc(F)cc1[C@H]1N2CC(=O)N(C)N=C2C[C@@H](c2cccc(Cl)c2)[C@]12C(=O)Nc1cc(Cl)ccc12` (racemic) [Example 1i, (6′R, 3R, 8′S)-6-chloro-8′-(3-chlorophenyl)-6′-(5-fluoro-2-methylphenyl)-2′-methyl-6′,7′,8′,9′-tetrahydro spiro[3H-indole-3,7′-(2H-pyrido[2,1-c][1,2,4]triazine)]-2,3′(1H)-dione], the IC50 came out at 191 nM.

Turning to `C=C(CC)[C@H]1N2CC(=O)N(CCCN(C)C)N=C2C[C@@H](c2cccc(Cl)c2)[C@]12C(=O)Nc1cc(Cl)ccc12` (racemic) [Example 5b, (6′R, 3R, 8′S)-6-chloro-8′-(3-chlorophenyl)-2′-(3-dimethylaminopropyl)-6′-(1-methylene-propyl)-6′,7′,8′,9′-tetrahydro spiro[3H-indole-3,7′-(2H-pyrido[2,1-c][1,2,4]triazine)]-2,3′(1H)-dione], the IC50 was found to be 100 nM.

Turning to `C=C(CC)[C@H]1N2CC(=O)N(CCOC(C)=O)N=C2C[C@@H](c2cccc(Cl)c2)[C@]12C(=O)Nc1cc(Cl)ccc12` (racemic) [Example 7b, (6′R, 3R, 8′S)-2′-(2-acetoxyethyl)-6-chloro-8′-(3-chlorophenyl)-6′-(1-methylene-propyl)-6′,7′,8′,9′-tetrahydro spiro[3H-indole-3,7′-(2H-pyrido[2,1-c][1,2,4]triazine)]-2,3′(1H)-dione], the IC50 was 890 nM.

Consider `C=CCOc1ccc(I)cc1[C@H]1N2CC(=O)N(C)N=C2C[C@@H](c2cccc(Cl)c2)[C@]12C(=O)Nc1cc(Cl)ccc12` (racemic) [Example 18g, (6′R, 3R, 8′S)-6′-(2-allyloxy-5-iodo-phenyl)-6-chloro-8′-(3-chlorophenyl)-2′-methyl-6′,7′,8′,9′-tetrahydro spiro[3H-indole-3,7′-(2H-pyrido[2,1-c][1,2,4]triazine)]-2,3′(1H)-dione], for which the IC50 worked out at 272 nM.

Regarding `C=C(CC)[C@H]1N2CC(=O)N(CC(=O)NCCO)N=C2C[C@@H](c2cccc(Cl)c2)[C@]12C(=O)Nc1cc(Cl)ccc12` [Example 11c, (6′R, 3R, 8′S)-6-chloro-8′-(3-chlorophenyl)-2′-[(2-hydroxyethylamino)carbonyl-methyl]-6′-(1-methylene-propyl)-6′,7′,8′,9-tetrahydro spiro[3H-indole-3,7′-(2H-pyrido[2,1-c][1,2,4]triazine)]-2,3′(1H)-dione], the 50% inhibitory concentration (IC50) came to 293 nM.
